What all share (test): relative viability (nuclei count vs DMSO), 5 days (fraction); higher = more cells survive
Compound in experiment [1]: C1/C(=C\C2=CC=CS2)/C(=O)/C(=C/C3=CC=CS3)/C1 + Cc1nc(NC(=O)N2CCC[C@H]2C(N)=O)sc1-c1ccnc(C(C)(C)C(F)(F)F)c1 [Alpelisib] (partner 2 µM)
The method in brief: (§1)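 One day after seeding in 1536-well plates, lung cancer cell lines were dosed by pin tool. Dosing was either single-drug or a fixed anchor-drug dose plus five library-drug doses (not always all listed) in √10 steps. After 5 days, nuclei were stained in one fix-and-stain step and counted on 4× images, and relative viability is the nuclei count of treated wells over that of vehicle wells, given as the median of duplicate plates.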

Compound in the experiment “TPCA-1 + Crizotinib”: C1=CC(=CC=C1C2=CC(=C(S2)NC(=O)N)C(=O)N)F [TPCA-1] + C[C@@H](Oc1cc(-c2cnn(C3CCNCC3)c2)cnc1N)c1c(Cl)ccc(F)c1Cl [Crizotinib] (partner 1 µM)
The essentials: as §1

Compound in the experiment “TPCA-1 + Pemetrexed”: C1=CC(=CC=C1C2=CC(=C(S2)NC(=O)N)C(=O)N)F [TPCA-1] + Nc1nc2[nH]cc(CCc3ccc(C(=O)N[C@@H](CCC(=O)O)C(=O)O)cc3)c2c(=O)[nH]1 [Pemetrexed] (partner 0.2 µM)
The essentials: as §1

Compound in experiment [2]: C[C@]12O[C@H](C[C@]1(O)CO)n1c3ccccc3c3c4c(c5c6ccccc6n2c5c31)CNC4=O [Lestaurtinib] + CC1(C)CCC(c2ccc(Cl)cc2)=C(CN2CCN(c3ccc(C(=O)NS(=O)(=O)c4ccc(N[C@H](CCN5CCOCC5)CSc5ccccc5)c(S(=O)(=O)C(F)(F)F)c4)cc3)CC2)C1 [Navitoclax] (partner 0.5 µM)
The method in brief: as §1

As for UMC-11, the relative viability in experiment [1] (first compound 0.2 µM) came out at 1.04; in experiment [1] (first compound 0.6325 µM), 1.1; in experiment [1] (first compound 2 µM), 0.847; in experiment [1] (first compound 20 µM) it was 0.952; with TPCA-1 + Crizotinib (first compound 0.04 µM) it was 0.579; in the experiment with TPCA-1 + Crizotinib (first compound 0.1265 µM), 0.586. For the same cell line, the relative viability is 0.578 in the experiment with TPCA-1 + Crizotinib (first compound 0.4 µM); 0.573 with TPCA-1 + Crizotinib (first compound 1.265 µM); 0.274 in the experiment with TPCA-1 + Crizotinib (first compound 4 µM); 0.809 with TPCA-1 + Pemetrexed (first compound 0.04 µM); 0.763 with TPCA-1 + Pemetrexed (first compound 0.1265 µM); 0.843 in the experiment with TPCA-1 + Pemetrexed (first compound 0.4 µM). For the same cell line, the relative viability is 0.776 with TPCA-1 + Pemetrexed (first compound 1.265 µM); 0.799 with TPCA-1 + Pemetrexed (first compound 4 µM); 0.294 in experiment [2] (first compound 0.005 µM); 0.275 in experiment [2] (first compound 0.01581 µM); 0.251 in experiment [2] (first compound 0.05 µM); 0.144 in experiment [2] (first compound 0.1581 µM). Also, the relative viability in experiment [2] (first compound 0.5 µM) worked out at 0.143.

(Values after the supplement of paper PMC10307832.)
